# Data from paper PMC10424186 (Journal of Medicinal Chemistry, 2023).
# “Also recorded” adds a separate entry of the source. Read-outs that look alike come from different tables or passages of the source.
# Columns and labels:
# human JMJD5 = human JMJD5 (Homo sapiens, UniProt Q8N371); assay: SPE-MS JMJD5 inhibition assay (hydroxylation of RPS6 128–148 peptide); type: biochemical
# Source text: Synthetic peptides with sequences based on reported human 2OG oxygenase substrates were used in SPE-MS inhibition assays: RPS6, residues 128–148, for JMJD5;[42] HIF-α CODD, residues 558–574, for PHD2;[70] HIF-α CAD, residues 788–822, for FIH;[70] H3_1-15K9me3, histone 3 (H3), residues 1–15 with K9 of H3-bearing three methyl groups at the N^ε-position, K4 of H3 substituted by an alanine residue, and K14 of H3 by an isoleucine residue,[73] for KDM4E; and RPL27A, residues 31–49, for RIOX2 (Mina53).[44] All peptides were prepared as C-terminal amides by GL Biochem (Shanghai) Ltd. A synthetic thioether-linked cyclic peptide, hFX-CP101–119,[48] which was designed based on the reported cellular AspH substrate human coagulation factor X (hFX, residues 101–119; C101 was substituted for a D-alanine residue and C112 for a serine residue),[79] was used as AspH substrate; it was prepared with a C-terminal amide according to literature protocols.[80]
# Cosubstrate/cofactor stock solutions [L-ascorbic acid/LAA: 50 mM in MQ-grade water; 2-oxoglutarate/2OG: 10 mM in MQ-grade water; ammonium iron(II) sulfate hexahydrate/FAS/(NH4)2Fe(SO4)2·6H2O: 400 mM in 20 mM HCl diluted to 1 mM in MQ-grade water] were freshly prepared from commercial solids (Sigma-Aldrich) on the day the assays were performed. The JMJD5,[42] PHD2,[70] FIH,[70] KDM4E,[72],[73] RIOX2,[44] and AspH[45] SPE-MS inhibition assays were performed as described in the cited literature, using isolated recombinant human enzymes (His6-thioredoxin-JMJD5,[42] His6-PHD2_181–426,[70] His6-FIH,[70] His6-KDM4E,[72],[73] His6-RIOX2_26–465,[87],[88] and His6-AspH315–758[48],[80]) and synthetic peptide substrates (RPS6_128–148 for JMJD5;[42] HIF-α CODD558–574 for PHD2;[70] HIF-α CAD788–822 for FIH;[70] H3_1–15K9me3 for KDM4E;[73] RPL27A31–49 for RIOX2;[44],[71] and hFX-CP101–119 for AspH;[45],[48] see above). For JMJD5, PHD2, FIH, RIOX2, and AspH, substrate hydroxylation was monitored (+16 Da mass shift), while for the KDM4E substrate, demethylation was monitored (−14 Da mass shift) by SPE-MS.
# KDM4E [1] = molecular target: T1, KDM4E (Homo sapiens, UniProt B2RXH2); details: cited from earlier work
# T1 construct: made in house; host or cells: Escherichia coli
# T1 sequence (B2RXH2 1-506): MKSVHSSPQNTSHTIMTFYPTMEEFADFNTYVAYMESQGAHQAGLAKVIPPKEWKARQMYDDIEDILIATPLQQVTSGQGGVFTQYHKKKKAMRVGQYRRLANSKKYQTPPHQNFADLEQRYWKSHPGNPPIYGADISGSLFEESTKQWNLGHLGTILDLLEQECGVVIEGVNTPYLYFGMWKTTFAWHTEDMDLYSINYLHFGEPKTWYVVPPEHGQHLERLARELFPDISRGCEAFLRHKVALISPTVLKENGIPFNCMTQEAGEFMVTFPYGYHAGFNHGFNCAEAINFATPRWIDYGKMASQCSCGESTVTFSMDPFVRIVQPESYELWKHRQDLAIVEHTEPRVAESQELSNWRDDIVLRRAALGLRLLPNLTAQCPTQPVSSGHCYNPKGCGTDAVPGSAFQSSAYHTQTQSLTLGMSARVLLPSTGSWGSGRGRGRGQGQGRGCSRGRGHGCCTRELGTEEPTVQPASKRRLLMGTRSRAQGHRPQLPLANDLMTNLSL
# AspH [2] = molecular target: T2, AspH (Homo sapiens, UniProt Q12797); details: cited from earlier work; for IC50 AspH: Supporting Table S1, reported SPE-MS value, ref SI 18
# T2 construct: N-terminally His6-tagged AspH315–758; made in house; host or cells: Escherichia coli
# T2 sequence (Q12797 315-758): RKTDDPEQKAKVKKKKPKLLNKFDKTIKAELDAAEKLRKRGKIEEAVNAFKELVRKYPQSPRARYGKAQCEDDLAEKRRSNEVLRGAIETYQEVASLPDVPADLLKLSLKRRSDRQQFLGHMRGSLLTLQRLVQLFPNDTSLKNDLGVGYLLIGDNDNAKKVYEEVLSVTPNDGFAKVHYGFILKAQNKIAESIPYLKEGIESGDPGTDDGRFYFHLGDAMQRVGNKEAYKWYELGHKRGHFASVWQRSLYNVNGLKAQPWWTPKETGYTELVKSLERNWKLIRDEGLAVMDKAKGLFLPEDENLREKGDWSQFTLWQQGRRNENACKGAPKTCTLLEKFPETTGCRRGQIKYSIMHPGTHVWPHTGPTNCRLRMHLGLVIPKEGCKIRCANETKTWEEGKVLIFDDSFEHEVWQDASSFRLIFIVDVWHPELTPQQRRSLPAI
# KDM4E [3] = molecular target: T1, KDM4E; assay: SPE-MS KDM4E inhibition assay (demethylation of H3 1–15 K9me3); type: biochemical; details: Table 2, 10.0 μM H3 1–15 K9me3, n = 2, mean ± SD
# Procedure: (§1) H3_1-15K9me3, histone 3 (H3), residues 1–15 with K9 of H3-bearing three methyl groups at the N^ε-position, K4 of H3 substituted by an alanine residue, and K14 of H3 by an isoleucine residue,[73] for KDM4E; and RPL27A, residues 31–49, for RIOX2 (Mina53).[44]
# (§2) Cosubstrate/cofactor stock solutions [L-ascorbic acid/LAA: 50 mM in MQ-grade water; 2-oxoglutarate/2OG: 10 mM in MQ-grade water; ammonium iron(II) sulfate hexahydrate/FAS/(NH4)2Fe(SO4)2·6H2O: 400 mM in 20 mM HCl diluted to 1 mM in MQ-grade water] were freshly prepared from commercial solids (Sigma-Aldrich) on the day the assays were performed. The JMJD5,[42] PHD2,[70] FIH,[70] KDM4E,[72],[73] RIOX2,[44] and AspH[45] […] For JMJD5, PHD2, FIH, RIOX2, and AspH, substrate hydroxylation was monitored (+16 Da mass shift), while for the KDM4E substrate, demethylation was monitored (−14 Da mass shift) by SPE-MS.
# AspH [4] = molecular target: T2, AspH; assay: SPE-MS AspH inhibition assay (hFX-CP101–119 hydroxylation); type: biochemical; details: Table 2; His6-AspH315–758 0.05 μM, 1.0 μM hFX-CP101–119; n = 2, mean ± SD
# Procedure: as §1, §2
# PHD2 = molecular target: T3, PHD2 (Homo sapiens, UniProt Q9GZT9); assay: SPE-MS PHD2 inhibition assay (HIF-1α CODD hydroxylation); type: biochemical; details: Table 2; PHD2 181–426 […], 5.0 μM HIF-1α CODD; n = 2, mean ± SD
# T3 construct: His6-PHD2_181–426; made in house; host or cells: Escherichia coli
# Procedure: as §1, §2
# RIOX2 = molecular target: T4, RIOX2 (Homo sapiens, UniProt Q8IUF8); assay: SPE-MS RIOX2 inhibition assay (RPL27A31–49 hydroxylation); type: biochemical; details: Table 2; His6-RIOX2 26–465 […], 5.0 μM RPL27A31–49; n = 2, mean ± SD
# T4 construct: N-terminally His6-tagged RIOX2_26–465; made in house; host or cells: Escherichia coli
# Procedure: Cosubstrate/cofactor stock solutions [L-ascorbic acid/LAA: 50 mM in MQ-grade water; 2-oxoglutarate/2OG: 10 mM in MQ-grade water; ammonium iron(II) sulfate hexahydrate/FAS/(NH4)2Fe(SO4)2·6H2O: 400 mM in 20 mM HCl diluted to 1 mM in MQ-grade water] were freshly prepared from commercial solids (Sigma-Aldrich) on the day the assays were performed. […] For JMJD5, PHD2, FIH, RIOX2, and AspH, substrate hydroxylation was monitored (+16 Da mass shift), while for the KDM4E substrate, demethylation was monitored (−14 Da mass shift) by SPE-MS.
# KDM4E [5] = molecular target: T1, KDM4E; details: Supporting Table S1; reported FDH-coupled spectrophotometric assay; ref SI 17; cited from earlier work
# [6] = Table 1, JMJD5 […], 2OG 2.0 μM, Fe(II) 2.0 μM, LAA 100 μM, RPS6 128–148 2.0 μM, pH 7.5, 20 °C, n = 3, mean ± SD, read-out: IC50 JMJD5
# [7] = isolated recombinant JMJD5, SPE-MS
# [8] = isolated recombinant JMJD5, SPE-MS, approximate values, read-out: IC50 for JMJD5 inhibition
# [9] = Table 2, JMJD5 […], 2OG 2.0 μM, Fe(II) 2.0 μM, LAA 100 μM, RPS6 128–148 2.0 μM, n = 3, mean ± SD, read-out: IC50 JMJD5
# [10] = Supporting Table S1, JMJD5 […], 2OG 2.0 μM, RPS6 128-148 2.0 μM, pH 7.5, 20 °C, n = 3, mean ± SD, read-out: IC50 JMJD5
# [11] = supplementary CSV, read-out: IC50 JMJD5
# Chain of human JMJD5 (Q8N371 whole entry, the tested form may be a part): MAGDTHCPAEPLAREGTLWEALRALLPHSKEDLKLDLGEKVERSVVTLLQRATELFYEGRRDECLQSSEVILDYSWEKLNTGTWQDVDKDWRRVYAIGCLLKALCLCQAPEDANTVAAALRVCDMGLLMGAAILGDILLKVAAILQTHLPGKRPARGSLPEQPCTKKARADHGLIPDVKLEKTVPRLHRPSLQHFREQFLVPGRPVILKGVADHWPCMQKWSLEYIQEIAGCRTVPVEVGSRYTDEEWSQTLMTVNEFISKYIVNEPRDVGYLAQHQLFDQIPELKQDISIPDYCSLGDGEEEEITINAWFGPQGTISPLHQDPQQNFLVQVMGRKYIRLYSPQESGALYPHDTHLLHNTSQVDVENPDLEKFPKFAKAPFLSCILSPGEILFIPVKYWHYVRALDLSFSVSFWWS
# T4 sequence (Q8IUF8 26-465): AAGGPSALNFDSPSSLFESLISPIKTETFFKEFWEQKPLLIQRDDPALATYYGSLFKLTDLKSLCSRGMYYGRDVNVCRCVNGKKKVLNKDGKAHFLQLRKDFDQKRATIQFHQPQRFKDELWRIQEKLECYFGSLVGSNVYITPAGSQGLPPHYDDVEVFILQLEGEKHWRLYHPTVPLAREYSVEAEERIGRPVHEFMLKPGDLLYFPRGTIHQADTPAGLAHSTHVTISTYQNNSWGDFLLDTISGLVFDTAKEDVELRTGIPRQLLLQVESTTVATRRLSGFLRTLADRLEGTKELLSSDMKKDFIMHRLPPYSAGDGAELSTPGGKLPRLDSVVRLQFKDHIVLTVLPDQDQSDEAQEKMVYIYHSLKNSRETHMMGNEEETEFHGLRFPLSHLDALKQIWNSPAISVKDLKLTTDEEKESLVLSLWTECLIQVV
# T3 sequence (Q9GZT9 181-426): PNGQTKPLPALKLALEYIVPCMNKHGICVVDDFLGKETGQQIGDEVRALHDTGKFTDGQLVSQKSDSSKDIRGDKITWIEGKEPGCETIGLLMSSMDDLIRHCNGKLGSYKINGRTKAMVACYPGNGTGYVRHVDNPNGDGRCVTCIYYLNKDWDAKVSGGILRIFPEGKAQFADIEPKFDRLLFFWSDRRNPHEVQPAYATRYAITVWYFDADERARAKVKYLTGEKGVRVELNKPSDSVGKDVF
compound,measurement,setting,value
"O=C(O)c1ccnc(C(=O)O)c1C(F)(F)F [Compound 14, 3-trifluoromethyl-2,4-PDCA]",IC50,human JMJD5; [6],> 50 µM
same,JMJD5 inhibition (in words),human JMJD5; [7],did not efficiently inhibit JMJD5
same,IC50,human JMJD5; [8],> 50 µM
same,KDM4E inhibition (in words),KDM4E [1],not to inhibit KDM4E
same,AspH inhibition (in words),AspH [2]; isolated recombinant AspH,does not inhibit
"O=C(O)c1cc(C(=O)O)c(C(F)(F)F)cn1 [Compound 16, 5-trifluoromethyl-2,4-PDCA]",IC50,human JMJD5; [6],> 50 µM
same,JMJD5 inhibition (in words),human JMJD5; [7],did not efficiently inhibit JMJD5; also recorded: does not inhibit JMJD5
same,IC50,human JMJD5; [8],> 50 µM
same,KDM4E inhibition (in words),KDM4E [1],not to inhibit KDM4E
O=C(O)c1cc(C(=O)O)c(NCCc2ccccc2)cn1 [Compound 20b],IC50,human JMJD5; [9],0.9 ± 0.2 µM
same,IC50,KDM4E [3],5.9 ± 0.6 µM
same,IC50,AspH [4],1.8 ± 0.1 µM
same,IC50,PHD2,> 50 µM
same,IC50,RIOX2,27.9 ± 6.7 µM
O=C(O)c1cc(C(=O)O)c(NCCCc2ccccc2)cn1 [Compound 20c],IC50,human JMJD5; [9],0.3 ± 0.1 µM
same,IC50,KDM4E [3],28.2 ± 4.1 µM
same,IC50,AspH [4],2.8 ± 0.4 µM
same,IC50,PHD2,> 50 µM
same,IC50,RIOX2,27.3 ± 6.7 µM
"COc1ccc(CNc2cnc(C(=O)O)cc2C(=O)O)cc1 [Compound 20h, 5-((4-methoxybenzyl)amino)pyridine-2,4-dicarboxylic acid]",IC50,KDM4E [3],15.5 ± 1.9 µM
same,IC50,AspH [4],2 ± 0.4 µM
same,IC50,PHD2,> 50 µM
same,IC50,RIOX2,27.6 ± 7.1 µM
"COc1ccccc1CNc1cnc(C(=O)O)cc1C(=O)O [Compound 20i, 5-((2-methoxybenzyl)amino)pyridine-2,4-dicarboxylic acid]",IC50,KDM4E [3],11.3 ± 2.9 µM
same,IC50,AspH [4],0.9 ± 0.2 µM
same,IC50,PHD2,> 50 µM
same,IC50,RIOX2,> 50 µM
O=C(O)c1ccc(Nc2c(C(=O)O)ccnc2C(=O)O)cc1 [Compound 22],IC50,human JMJD5; [10],> 50 µM
same,IC50,human JMJD5; [11],> 50 µM
same,IC50 AspH,AspH [2],inactive
same,IC50,KDM4E [5],66 µM
O=C(O)c1ccnc(C(=O)O)c1Nc1ccc([N+](=O)[O-])cc1 [Compound 23],IC50,human JMJD5; [10],> 50 µM
same,IC50,human JMJD5; [11],> 50 µM
same,IC50 AspH,AspH [2],inactive
same,IC50,KDM4E [5],95 µM
